Measurements taken from the NIST ThermoML archive (doi:10.1021/je900697w).

Assays:
[1] = xn = mol fraction of the nth substance listed; conditions: for surface tension liquid-gas: Ring tensiometer; for mass density: 101 kPa, Liquid, Vibrating tube method
[2] = for surface tension liquid-gas: Ring tensiometer; for mass density: 101.33 kPa, Liquid
[3] = 101 kPa, Liquid mixture 1, Ring tensiometer

CCCCCC[n+]1ccn(C)c1.O=S(=O)([N-]S(=O)(=O)C(F)(F)F)C(F)(F)F + C=CCCCCCC
[1], x2 = 0
Conditions | mass density [kg/m3] | surface tension liquid-gas [mN/m]
283.1 K | 1385.4 | 31.2
298.15 K | 1370.7 | 30.8
323.15 K | 1348 | 28.9
348.15 K | 1324 | 27.6

C=CCCCCCC [oct-1-ene]
[2]
Conditions | surface tension liquid-gas [mN/m]
283.1 K | 22.5
298.15 K | 21.2
323.15 K | 18.5
348.15 K | 15.7

[2], Vibrating tube method
Conditions | mass density [kg/m3]
283.1 K | 723.5
298.15 K | 711.2
323.15 K | 690
348.15 K | 668

CCCCCC[n+]1ccn(C)c1.O=S(=O)([N-]S(=O)(=O)C(F)(F)F)C(F)(F)F
[2]
Conditions | mass density [kg/m3] | surface tension liquid-gas [mN/m]
283.1 K | 1385.4 | 31.2
298.15 K | 1370.7 | 30.8
323.15 K | 1348 | 28.9
348.15 K | 1324 | 27.6

C=CCCCCCC [oct-1-ene] + CCCCCC[n+]1ccn(C)c1.O=S(=O)([N-]S(=O)(=O)C(F)(F)F)C(F)(F)F
[3]
Conditions | interfacial tension [mN/m]
283.1 K | 13.3
298.15 K | 13
323.15 K | 9.7
348.15 K | 4.4

[1]
Conditions | mass density [kg/m3] | surface tension liquid-gas [mN/m]
283.1 K, x1 = 0.05 | 1372.1 | 30.9
283.1 K, x1 = 0.1 | 1356 | 29.8
283.1 K, x1 = 0.139 | 1340 | –
283.1 K, x1 = 0.15 | – | 27.8
283.1 K, x1 = 0.154 | 1340 | –
283.1 K, x1 = 0.16 | – | 27.7
283.1 K, x1 = 1 | – | 22.5
298.15 K, x1 = 0.05 | 1358 | 30.3
298.15 K, x1 = 0.1 | 1342 | 29.4
298.15 K, x1 = 0.139 | 1328 | –
298.15 K, x1 = 0.15 | – | 27.4
298.15 K, x1 = 0.154 | 1326 | –
298.15 K, x1 = 0.19 | – | 27
298.15 K, x1 = 1 | – | 21.2
323.15 K, x1 = 0.05 | 1336 | 28.8
323.15 K, x1 = 0.1 | 1319 | 28.7
323.15 K, x1 = 0.139 | 1306 | –
323.15 K, x1 = 0.15 | – | 26.6
323.15 K, x1 = 0.154 | 1303 | –
323.15 K, x1 = 0.23 | – | 25.5
323.15 K, x1 = 1 | – | 18.5
348.15 K, x1 = 0.05 | 1313 | 27.4
348.15 K, x1 = 0.1 | 1300 | 27.2
348.15 K, x1 = 0.139 | 1282 | –
348.15 K, x1 = 0.15 | – | 26.3
348.15 K, x1 = 0.154 | 1279 | –
348.15 K, x1 = 0.28 | – | 25.3
348.15 K, x1 = 1 | – | 15.7
